Data on 29 molecules can be found in ChEMBL document CHEMBL1146948, “Synthesis and biological activity of diaryl ether inhibitors of malarial enoyl acyl carrier protein reductase. Part 2: 2'-substituted triclosan derivatives” (Bioorg Med Chem Lett, 2006).

The structures appear in SMILES notation. Some results are limits rather than exact numbers.

In assay [1] the test system is Plasmodium falciparum. Nature of the assay: Antimalarial activity against Plasmodium falciparum 3D7. In kind it is functional, organism-based.
Assay [2] has as its system Plasmodium falciparum. Nature of the assay: Antimalarial activity against Plasmodium falciparum Dd2. In kind it is functional, organism-based.
The target in assay [3] is T1, Enoyl-acyl-carrier protein reductase (Plasmodium falciparum, UniProt Q965D5).
T1 sequence (Q965D5 whole entry): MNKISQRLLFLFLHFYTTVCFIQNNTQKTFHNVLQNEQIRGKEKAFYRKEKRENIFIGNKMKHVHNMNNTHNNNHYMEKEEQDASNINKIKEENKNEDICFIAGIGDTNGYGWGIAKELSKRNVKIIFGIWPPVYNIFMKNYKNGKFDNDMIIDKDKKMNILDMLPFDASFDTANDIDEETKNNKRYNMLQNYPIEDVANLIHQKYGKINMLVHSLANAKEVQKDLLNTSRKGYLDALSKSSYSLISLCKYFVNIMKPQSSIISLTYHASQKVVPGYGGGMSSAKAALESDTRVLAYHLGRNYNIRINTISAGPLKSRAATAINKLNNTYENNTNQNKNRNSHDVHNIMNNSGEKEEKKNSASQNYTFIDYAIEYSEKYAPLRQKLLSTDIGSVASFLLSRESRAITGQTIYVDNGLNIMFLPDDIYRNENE
Nature of the assay: Inhibition of Plasmodium falciparum ENR enzymatic activity.

One may read the EC50 as the concentration giving half of the maximal effect. A high value points to weaker potency. One may read the IC50 as the point on the concentration scale where inhibition reaches its midpoint. `Oc1cc(Cl)ccc1Oc1ccc(Cl)cc1CN1CCCC1`: the concentration for a half-maximal effect (EC50) in the assay with Plasmodium falciparum [1] amounted to 0.5 µM; in the assay with Plasmodium falciparum [2], 0.45 µM. The molecule also had a concentration for half-maximal inhibition (IC50) in assay [3] above 50 µM.
On to `Oc1cc(Cl)ccc1Oc1ccc(Cl)cc1CN1CCN(Cc2ccccc2)CC1`, for which the EC50 was 0.63 µM in the assay on Plasmodium falciparum [1] and 0.62 µM in the assay on Plasmodium falciparum [2]. The molecule also showed an IC50 in assay [3] of 11 µM.
For `Oc1cc(Cl)ccc1Oc1ccc(Cl)cc1CNCc1ccc2c(c1)CCO2` the same measures were 0.18 µM, 0.11 µM and 9 µM.
On the same counts, the results for `Nc1ccccc1Oc1ccc(Cl)cc1O` are 83 µM, 140 µM and 7 µM.
As for `Oc1cc(Cl)ccc1Oc1ccc(Cl)cc1CNc1ccc2ccccc2c1`, the concentration for a half-maximal effect (EC50) in the assay on Plasmodium falciparum [1] was 0.21 µM; with Plasmodium falciparum [2] it was 0.14 µM. For the same molecule, it took 26 µM to reach half-maximal inhibition in assay [3] (IC50).
On the same counts, the results for `COc1cc(Cl)ccc1Oc1ccccc1CNCc1ccc(Cl)cc1` are 19 µM, 24 µM and above 50 µM.
On the same counts, the results for `Oc1cc(Cl)ccc1Oc1ccc(Cl)cc1CN1CCCCC1` are 0.73 µM, 0.48 µM and above 50 µM.
For `Oc1cc(Cl)ccc1Oc1ccccc1CNCc1ccccc1` the same measures were 0.49 µM, 0.42 µM and 10 µM.
Turning to `Oc1cc(Cl)ccc1Oc1ccccc1CNCc1ccc(Cl)cc1`, the figures for the concentration giving a half-maximal response (EC50) with Plasmodium falciparum [1] and in the assay on Plasmodium falciparum [2] were 0.33 µM and 0.3 µM, respectively. Moreover, it took 35 µM to reach half-maximal inhibition in assay [3] (IC50).
As to `O=C(NCc1cc(Cl)ccc1Oc1ccc(Cl)cc1O)c1ccccc1`, the figures for the EC50 in the assay with Plasmodium falciparum [1] and in the assay on Plasmodium falciparum [2] were 8.6 µM and 12 µM, respectively. The IC50 in assay [3] was 18 µM.
With `Oc1cc(Cl)ccc1Oc1ccccc1CNCCCc1ccccc1`, the results for the 50% effective concentration (EC50) in the assay on Plasmodium falciparum [1] and in the assay with Plasmodium falciparum [2] were 0.32 µM and 0.39 µM, respectively. In addition, in assay [3], the IC50 is 19 µM.
On the same counts, the results for `Oc1cc(Cl)ccc1Oc1ccccc1CNc1cccc2ccccc12` are 0.3 µM, 0.37 µM and 11 µM.
On the same counts, the results for `CC(C)(NCc1ccc(Cl)cc1)c1cc(Cl)ccc1Oc1ccc(Cl)cc1O` are 0.41 µM, 0.35 µM and 7.2 µM.
For `Oc1cc(Cl)ccc1Oc1ccccc1CNc1ccc2ccccc2c1` the same measures were 0.45 µM, 0.33 µM and 46 µM.
In the case of `Oc1cc(Cl)ccc1Oc1ccc(Cl)cc1CNCc1ccccc1`, the values for the EC50 with Plasmodium falciparum [1] and in the assay with Plasmodium falciparum [2] were 0.77 µM and 0.83 µM, respectively. The half-maximal inhibitory concentration (IC50) in assay [3] amounted to 3.3 µM.
For `Oc1cc(Cl)ccc1Oc1ccc(Cl)cc1CNc1cccc2ccccc12` the same measures were 2.6 µM, 2.2 µM and above 50 µM.
Regarding `CNCc1cc(Cl)ccc1Oc1ccc(Cl)cc1O`, the EC50 in the assay with Plasmodium falciparum [1] came to 0.58 µM; in the assay with Plasmodium falciparum [2], 0.47 µM. Besides, in assay [3], the concentration for half-maximal inhibition (IC50) stood at 27 µM.
For the molecule `CN(Cc1ccc(Cl)cc1)Cc1cc(Cl)ccc1Oc1ccc(Cl)cc1O`, the EC50 in the assay with Plasmodium falciparum [1] came out at 0.25 µM; in the assay on Plasmodium falciparum [2], 0.19 µM. This molecule yielded an IC50 in assay [3] of 22 µM.
On to `Oc1cc(Cl)ccc1Oc1ccc(Cl)cc1CNCc1ccc(-c2ccccc2)cc1`, for which the EC50 in the assay on Plasmodium falciparum [1] was 0.23 µM; in the assay on Plasmodium falciparum [2], 0.15 µM. The molecule also had an IC50 in assay [3] of 35 µM.
On the same counts, the results for `Oc1cc(Cl)ccc1Oc1ccc(Cl)cc1CN1CCN(C(c2ccccc2)c2ccccc2)CC1` are 2.1 µM, 1.4 µM and above 50 µM.
For `NCc1cc(Cl)ccc1Oc1ccc(Cl)cc1O` the same measures were 2.7 µM, 2 µM and above 50 µM.
On the same counts, the results for `CC(=O)N(Cc1ccc(Cl)cc1)Cc1cc(Cl)ccc1Oc1ccc(Cl)cc1O` are 3.5 µM, 5.9 µM and 28 µM.
As to `CN(C)Cc1cc(Cl)ccc1Oc1ccc(Cl)cc1O`, the results for the EC50 in the assay on Plasmodium falciparum [1] and with Plasmodium falciparum [2] were 0.18 µM and 0.22 µM, respectively. Besides, the half-maximal inhibitory concentration (IC50) in assay [3] is 19 µM.
With `Oc1cc(Cl)ccc1Oc1ccc(Cl)cc1CN1CCN(c2ccccc2)CC1`, the EC50 with Plasmodium falciparum [1] turned out to be 14 µM; in the assay on Plasmodium falciparum [2], 15 µM. In assay [3], this molecule came in with a half-maximal inhibitory concentration (IC50) of 6.1 µM.
For `Oc1cc(Cl)ccc1Oc1ccccc1CNCCc1ccccc1` the same measures were 0.78 µM, 0.75 µM and 2.5 µM.
Consider `Oc1cc(Cl)ccc1Oc1ccc(Cl)cc1CNCc1ccc(Cl)cc1`, for which the concentration for a half-maximal effect (EC50) is 0.32 µM in the assay on Plasmodium falciparum [1] and 0.27 µM in the assay on Plasmodium falciparum [2]. The same molecule displayed a half-inhibitory concentration (IC50) in assay [3] of 7.2 µM.
For `CN(Cc1ccc(Cl)cc1)C(C)(C)c1cc(Cl)ccc1Oc1ccc(Cl)cc1O` the same measures were 0.14 µM, 0.38 µM and 27 µM.
On the same counts, the results for `NCc1ccccc1Oc1ccc(Cl)cc1O` are 9.7 µM, 7.2 µM and above 50 µM.
For `O=S(=O)(NCc1cc(Cl)ccc1Oc1ccc(Cl)cc1O)c1ccccc1` the same measures were 11 µM, 17 µM and 15 µM.
